The values that follow come from article PMC12294753, “Development of INER-PP-F11N as the Peptide-Radionuclide Conjugate Drug Against CCK2 Receptor-Overexpressing Tumors” (International Journal of Molecular Sciences, 2025).

For series [1], the system named is human gastric cancer ascites cells. More on the design: method as in PMID 10494457, PMID 10188727. The conditions noted are these: mouse models inoculated with human gastric cancer ascites cells; cited from earlier work.
Series [2] concerns CCK2R. More on the design: method as in PMID 10494457, PMID 10188727. As to conditions: cited from earlier work.
Series [3] has as its system human pancreatic cancer cells. More on the design: method as in PMID 10636070, PMID 7813546. The conditions noted are these: cited from earlier work.
For series [4], the system named is pancreatic tumor PDX models. More on the design: method as in PMID 34593598. As to conditions: cited from earlier work.
A short description of series [5]: Biodistribution study in tumor-bearing mice. The format is in vivo. As to conditions: mouse, intravenous, total radioactivity, 72 h after tail-vein injection, tumor-bearing mice. As for the experimental part:
(§1) To generate A431-CCK2R (+) and A431-CCK2R (−) tumor-bearing mice models, mice (3 per group) were inoculated subcutaneously with 6 × 10^6 cells, which were injected into the inner right back leg for A431-CCK2R (+) tumors and the left back leg for A431-CCK2R (−) tumors, respectively. These xenografts were monitored until the tumor volume reached approximately 200–500 mm^3 [57]. The mice were then randomized to subgroups for further experiments. The formula for calculating tumor volume (V) is V = 4/3πr^3.
(§2) Mice were sacrificed via CO2 asphyxiation 72 h after intravenous injection of 50–100 μCi (50–100 μL) of radiolabeled DOTA-PP-F11N, DOTA-INER-PP-F11N-1, or DOTA-INER-PP-F11N-2 [58]. Tumors and organs of interest were collected for further pathological examinations. The PerkinElmer 2480 Automatic Gamma Counter (PerkinElmer, Waltham, MA, USA) was used to measure radioactivity; the data are presented as the percentage injected dose per gram of tissue (%ID/g).

The test system of series [6] is A431-CCK2R (+) tumors. Nature of the series: Biodistribution study in tumor-bearing mice. In kind it is in vivo. The conditions noted are these: biodistribution studies. The protocol:
as §1, §2

Series [7] has as its system A431-CCK2R (−)/A431-CCK2R (+) tumor-bearing mice. The series is described as follows: NanoSPECT/CT imaging of tumor-bearing mice. The format is in vivo. As for the experimental part: as §1
The NanoSPECT/CT® plus scanner system (Mediso Medical Imaging Systems; Budapest, Hungary) was utilized to detect in vivo tumors in the in vivo animal models. Both A431-CCK2R (+) and A431-CCK2R (−) cancer cells were inoculated subcutaneously into the inner right leg and left back leg of the mice. Radiopharmaceuticals—[^111In]In-DOTA-PP-F11N, [^111In]In-DOTA-INER-PP-F11N-1, and [^111In]In-DOTA-INER-PP-F11N-2 (1 mCi)—were injected once the mean tumor volume reached approximately 200–500 mm^3. Inhalant (1–2% isoflurane) was used to anesthetize the mice during imaging acquisition. X-ray CT images and SPECT images were taken 4, 24, and 48 h after tail-vein injection. NanoSPECT imaging was acquired using nine multi-pinhole gamma detectors with high-resolution collimators. The energy window was set at 171 and 245 KeV ± 10%, the image size was set at 256 × 256, and the field of view was set at 60 mm × 100 mm.
For Lu-177, only 208 keV photons were used for imaging, with an energy window set at 208 keV ± 10%. Although Lu-177 also emits lower abundance photons at 113 keV, the 208 keV photon provides better image quality due to reduced scatter and higher energy resolution. Therefore, the gamma camera energy windows were specifically tailored to the photon emission profiles of each radionuclide to ensure optimal detection efficiency and image accuracy.
(§3) We investigated therapeutic responses in mice receiving [^177Lu]Lu-DOTA-PP-F11N, [^177Lu]Lu-DOTA-INER-PP-F11N-1, or [^177Lu]Lu-DOTA-INER-PP-F11N-2. A431-CCK2R (+) and A431-CCK2R (−) cells were implanted subcutaneously into the right and left inner hind legs of NOD/SCID mice. Once the tumors reached a volume of 200–500 mm^3, the mice were intravenously injected with either 200 μCi of [^177Lu]Lu-DOTA-PP-F11N, [^177Lu]Lu-DOTA-INER-PP-F11N-1, [^177Lu]Lu-DOTA-INER-PP-F11N-2, or PBS (as a non-radioactive control). The NanoSPECT/CT® plus scanner system (Mediso Medical Imaging Systems; Budapest, Hungary) was utilized to detect and image tumors in the mouse models. Tumor volumes were measured twice a week for 4 weeks.

Series [8] relates to A431-CCK2R (−) cells. The series is described as follows: In vitro binding and internalization assay, A431-CCK2R (−) cells. In kind it is cell-based. The conditions noted are these: 37 °C. The protocol:
(§4) In vitro binding and internalization activities were measured using a gamma counter (WIZARD 1480, Perkin-Elmer). Briefly, A431-CCK2R (+) and A431-CCK2R (−) cells were seeded on 24-well plates (1 × 10^5 cells/well, Corning, NY, USA) for 12 h. The plated cells were treated with 30 ± 10 GBq/µmol of [^177Lu]Lu-DOTA-PP-F11N, [^177Lu]Lu-DOTA-INER-PP-F11N-1, or [^177Lu]Lu-DOTA-INER-PP-F11N-2 (1 mL/well) and then incubated at 37 °C for either 1 or 4 h. After incubation, the medium was collected, and the cells were then washed with ice-cold buffer. The medium and washed PBS were collected in tube 0. The washed cells were treated with glycine–HCl buffer (0.1 M, pH 3.0) and incubated for 10 min. After incubation, cells were washed again with glycine–HCl buffer. Both glycine-HCl buffer solutions were collected in tube 1. The washed cells were treated with 1 N NaOH (1 mL/well) and incubated for 10 min for cell lysis. After incubation, the cells were washed once with 1 N NaOH. The cell lysate solution was collected in tube 2. All tubes were analyzed using a gamma counter to detect radioactivity. Data were obtained from at least three independent experiments. The respective formulae for in vitro surface binding activity and internalization were as follows:Surface binding = tube 1/(tube 0 + tube 1 + tube 2) × 100%.Internalization = tube 2/(tube 0 + tube 1 + tube 2) × 100%.

Series [9] deals with A431-CCK2R (+) tumors. The series is described as follows: Therapeutic responses to Lu-177-labeled CCK2R analogs in CCK2R-expressing cancer-bearing mice. The format is in vivo. The conditions noted are these: 200 μCi intravenously. As for the experimental part:
as §1, §3

Series [10] deals with A431-CCK2R (+) cells. Nature of the series: In vitro binding and internalization assay, A431-CCK2R (+) cells. In kind it is cell-based. The arrangement: surface binding activity / internalization activity: concentration or dose not given beside the values. As to conditions: for internalization activity / surface binding activity: A431-CCK2R (+) cells, 37 °C; for enhancement of internalization activity compared with PP-F11N: A431 CCK2R (+) cells, compared with conventional [^177Lu]Lu-DOTA-PP-F11N. The protocol:
as §4

Series [11] in a line: Metabolic stability analysis (radio-HPLC) in PBS at 4 °C or FBS at 37 °C. The format is in vitro ADME. As for the experimental part:
DOTA-PP-F11N, DOTA-INER-PP-F11N-1, and DOTA-INER-PP-F11N-2 were labeled with In-111 and Lu-177 for further experiments. The detection of free In-111 after ITLC extension was defined as 0% radiolabeling efficiency. […]
To measure the labeling efficiency, ITLC was performed on glass microfiber chromatography paper impregnated with a silica gel (Agilent Technologies, Santa Clara, CA, USA) as described previously. Briefly, the ITLC sheets were developed with 10% methanol as solvent (Rf free Lu-177 = 0, Rf Lu-177-labeled compounds = 1) and measured using a radioactive scanner (AR-2000 radio-TLC […] Imaging Scanner, Bioscan, France). The sample was mixed with acetonitrile at a 1:1 (v/v) ratio, followed by centrifugation at 16,000× g for 5 min. The resulting supernatant was subsequently analyzed using HPLC with UV (220[…]) and radio detector with a Zorbax SB-C18 column (Agilent Technologies, Santa Clara, CA, USA). The flow rate was 0.8 mL/min, with the gradient mobile phase going from 90% A […] buffer (0.1% TFA in water) and 10% B buffer (0.1% TFA in acetonitrile) to 90% B buffer […] within 20 min.

Series [12] in a line: Histopathological examinations (H&E) of mice after radiolabeled drug administration. In kind it is in vivo. As to conditions: light microscopy. The text has this:
To investigate the pathological alterations in tumor-bearing mice receiving radiopharmaceuticals, […] tissues, including tumors, heart, liver, and kidneys, were collected. The specimens were first fixed using 10% buffered neutral formalin and then embedded in paraffin. Sections of 3–5 μm thickness were stained with H&E and examined using light microscopy (40 × and 20 ×).

SMILES strings stand for the structures. Where two headings read alike, the source gives them in different places. Where a SMILES comes first, the peptide text is derived from it. [ ]: non-standard residue; d: D form. The star is where a group is joined. DOTA = O=C(O)CN1CCN(CC(=O)O)CCN(CC(=O)*)CCN(CC(=O)O)CC1; Butanoyl(4-(4-MePh)) = Cc1ccc(CCCC(=O)*)cc1; 4Amb = NCc1ccc(C(=O)O)cc1; Nle = CCCC[C@H](N)C(=O)O

With `C[C@](Cc1c[nH]c2ccccc12)(NC(=O)OC1[C@H]2C[C@@H]3C[C@@H](C[C@H]1C3)C2)C(=O)NC[C@H](NC(=O)CCC(=O)O)c1ccccc1` (some centres unmarked) [CI-988], the survival entry in series [1] is listed as “improve survival”. Besides, the “gastrin binding to CCK2R” value in series [2] was “block gastrin binding to CCK2R”.
As to `Cc1cccc(NC(=O)N[C@@H]2N=C(c3ccccc3)c3ccccc3N(C)C2=O)c1` [L-365260], in series [3], the exogenous gastrin-induced proliferation entry is given as “inhibited”.
On to `Cc1cc(-c2ccc(NC(=O)CCCC(=O)N[C@@H](CCCCNC(=O)CN3CCN(CC(=O)O)CCN(CC(=O)O)CCN(CC(=O)O)CC3)C(=O)N3CCN(CCCOc4ccc5nccc(C(=O)NCC(=O)N6CC(F)(F)C[C@H]6C#N)c5c4)CC3)c(C)c2)ccc1N=Nc1ccc2c(S(=O)(=O)O)cc(S(=O)(=O)O)c(N)c2c1O` [TEFAPI-07], for which the “tumor uptake and retention” value in series [4] is “significantly enhanced tumor uptake and retention”.
In the case of `CCCC[C@H](NC(=O)[C@H](Cc1c[nH]c2ccccc12)NC(=O)CNC(=O)[C@H](Cc1ccc(O)cc1)NC(=O)[C@H](C)NC(=O)[C@@H](CCC(=O)O)NC(=O)[C@@H](CCC(=O)O)NC(=O)[C@@H](CCC(=O)O)NC(=O)[C@@H](CCC(=O)O)NC(=O)[C@@H](CCC(=O)O)NC(=O)[C@@H](CCC(=O)O)NC(=O)c1ccc(CNC(=O)[C@H](CCCCNC(=O)CCCc2ccc(C)cc2)NC(=O)CN2CCN(CC(=O)O)CCN(CC(=O)O)CCN(CC(=O)O)CC2)cc1)C(=O)N[C@@H](CC(=O)O)C(=O)N[C@@H](Cc1ccccc1)C(N)=O` [[^177Lu]Lu-DOTA-INER-PP-F11N-1, metal not drawn] ({DOTA}-K(Butanoyl(4-(4-MePh)))[4Amb][dE][dE][dE][dE][dE][dE]AYGW[Nle]DF-NH2), the tissue uptake at 72 h in series [5] (kidneys, read-out: radiotracer accumulation in the kidneys) turned out to be 7.4 ± 2.3 %ID/g; in [5] (tumor (A431-CCK2R (+)), read-out: tumor uptake of radiopharmaceuticals), 1.14 ± 0.92 %ID/g. The tumor-to-kidney ratio result in [6] is “favorable”. The “radioactivity within the kidneys on NanoSPECT/CT” value in series [7] (compared with Lu-177-labeled PP-F11N over the same period) is “significantly lower”. In addition, the “radiotracer accumulation in the tumor region on NanoSPECT/CT” value in [7] (tail-vein injection, Lu-177-labeled) is on record as “avid radiotracer uptake within the tumor”. Moreover, the internalization activity in series [8] (1 h) is 0.32 ± 0.10 %IA/106 cells; in [8] (4 h) it was 0.17 ± 0.03 %IA/106 cells; in series [10] (1 h), 45.32 ± 6.12%; in [10] (4 h), 90.49 ± 5.65%. The surface binding activity in [8] (1 h) came to 1.08 ± 0.49 %IA/106 cells; in series [10] (1 h), 5.93 ± 1.68%; in series [10] (4 h), 14.57 ± 4.06%. Moreover, the “tumor volume at D23” value in series [9] is recorded as 841.33 ± 165.70 mm^3. Also, the “enhancement of internalization activity compared with PP-F11N” value in series [10] is reported as 26.7%; in [10] (listed as 177Lu-DOTA-INER-PP-F11N-1) it was 27%. Also, the metabolic stability entry in series [11] (4 °C PBS, 144 h after Lu-177 labeling) was “more than 95%”; in series [11] (Lu-177-labeled, 37 °C FBS, 144 h), greater than 99%. For the same molecule, in series [12], the “histopathological changes in the kidneys” value is given as “no significant histopathological changes”. For the same molecule, in [12], the “histopathological changes in the liver and heart” value is reported as “no significant histopathological changes”.
